Target: T1, Gal4-RORγ-LBD (Homo sapiens, UniProt P51449)
T1 construct: expressed in transfected cells; host or cells: HEK-293 cells (pcDNA3.1neo plasmid)
T1 sequence (P51449 269-508 limits assumed): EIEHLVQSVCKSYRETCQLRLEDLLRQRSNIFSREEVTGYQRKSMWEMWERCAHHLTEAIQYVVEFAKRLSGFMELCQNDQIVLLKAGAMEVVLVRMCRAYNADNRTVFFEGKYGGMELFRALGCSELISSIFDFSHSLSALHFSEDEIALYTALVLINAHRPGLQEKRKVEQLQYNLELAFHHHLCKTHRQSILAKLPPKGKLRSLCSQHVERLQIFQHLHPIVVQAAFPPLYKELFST
Experiment: Gal4-RORγ Luciferase Reporter Assay in HEK-293T Cells
Assay type: cell-based
Settings: HEK-293 cells
Description: Assay procedures and results are described below.
In the following protocol, HEK-293 cells were transfected with a construct comprising the Gal4 DNA binding domain fused to the ligand binding domain of RORγ (Gal4-RORγ-LBD) in a pcDNA3.1neo plasmid, and also with a reporter construct comprising pGL4.31 Gal4-luciferase (Promega). Control cells were prepared similarly using empty pcDNA3.1neo and pGL4.31 vectors.
Trans-IT reagent (Mirus, 60 μL) at room temperature was added drop wise to OptiMEM (Invitrogen, 1.5 ml). This reagent mixture was mixed by inversion then incubated for 5 to 30 minutes at room temperature. It then was added to a solution of both expression vectors (5 μg each), mixed, and incubated at room temperature for about 20 minutes. HEK-293 cells were harvested from incubation flasks by removing the media, treating with TrypLE Express (Invitrogen), and incubating until the cells detached from the bottom of the flask (approximately 2-5 minutes). 10 Million cells were collected by centrifugation and re-suspended in 10 mL of Dulbecco's Modified Eagle Medium, High Glucose (DMEM, Invitrogen) containing 10% Fetal Bovine Serum and 100 IU each of penicillin and streptomycin. The re-suspended cells and the transfection mixture were added to a T75 flask, mixed and incubated overnight at 37° C. and 5% CO2.
The cells were harvested as described above, counted, and centrifuged to obtain the desired number of cells, then re-suspended in complete growth media at 0.75×10^6 cells/mL. The RORγ antagonist, ursolic acid, was added to the cells at a final concentration of 2 μM. Cells were plated at 20 μL of cell suspension/well (10,000-15,000 cells/well) in white tissue culture treated 384 well plates. Test compounds were dissolved at 10 mM in DMSO then diluted into complete growth medium to 5× the final intended test concentration. These drug stock solutions, 5 μL/well were added to the tissue culture plate. The final DMSO concentration was 0.2%. The plates were briefly centrifuged then incubated overnight at 37° C. and 5% CO2. To conduct the assay, the tissue culture plates were allowed to equilibrate to room temperature and One-Glo luciferase reagent (Promega, 25 μL/well) was added. The plates were briefly centrifuged then incubated at room temperature for 10 minutes. The luciferase intensity was read on an Envision plate reader (Perkin Elmer). […] The luciferase signal in the absence of ursolic acid or test compound is defined at 100. The Max Response is the upper plateau in the signal as determined by line-fit using a 4-parameter logistic model in PRISM (GraphPad).

[1] = luciferase reporter, with 2 μM ursolic acid

| SMILES | EC50 (2 μM ursolic acid) [nM] | EC50 [1] [nM] | Gal4-RORγ Assay Max Response (2 μM ursolic acid) | Gal4-RORγ Assay Max Response [1] |
| --- | --- | --- | --- | --- |
| CC1(C(=O)O)CC(C[C@H]2CN(S(=O)(=O)c3cccc(C(F)(F)F)c3)c3cc(-c4cc(F)cc(F)c4Cl)ccc3O2)C1 (stereo partly drawn) [Compound 60G, (1R,3s)-3-(((S)-6-(2-chloro-3,5-difluorophenyl)-4-((3-(trifluoro-methyl)phenyl)sulfonyl)-3,4-dihydro-2H-benzo[b][1,4]oxazin-2-yl)methyl)-1-methylcyclo-butane-1-carboxylic acid] | < 500 | – | *** (The symbol “***” indicates a value in the range of greater than 150 to 200) | – |
| COc1cc(S(=O)(=O)N2C[C@H](CNS(=O)(=O)N3CCCC3)Oc3ccc(-c4cc(F)ccc4F)cc32)ccc1F [Compound 45F, (S)-N-((6-(2,5-difluorophenyl)-4-((4-fluoro-3-methoxyphenyl)sulfonyl)-3,4-dihydro-2H-benzo[b][1,4]oxazin-2-yl)methyl)pyrrolidine-1-sulfonamide] | < 500 | – | – | – |
| CC(C)c1cccc(S(=O)(=O)N2C[C@H](CC(C)(C)C(=O)O)Oc3ccc(-c4cc(F)ccc4F)cc32)c1 [Compound 32M, (S)-3-(6-(2,5-difluorophenyl)-4-((3-isopropylphenyl)sulfonyl)-3,4-dihydro-2H-benzo[b][1,4]oxazin-2-yl)-2,2-dimethylpropanoic acid] | – | 500 to 5000 | – | ** (The symbol “**” indicates a value in the range of greater than 90 to 150) |
| COc1cc(S(=O)(=O)N2C[C@H](CNC(=O)C(C)(C)O)Oc3ccc(-c4cccc(C(F)(F)F)n4)cc32)ccc1F [Compound 30T, (S)-N-((4-((4-fluoro-3-methoxyphenyl)sulfonyl)-6-(6-(trifluoromethyl)pyridin-2-yl)-3,4-dihydro-2H-benzo[b][1,4]oxazin-2-yl)methyl)-2-hydroxy-2-methylpropanamide] | – | < 500 | – | * (The symbol “*” indicates a value in the range of 25 to 90) |
| C[C@]1(C(=O)O)C[C@H](C[C@H]2CN(S(=O)(=O)c3cccc(C(F)(F)F)c3)c3cc(-c4cc(F)cc(F)c4Cl)ccc3O2)C1 [Compound 60F, (1S,3r)-3-(((S)-6-(2-chloro-3,5-difluorophenyl)-4-((3-(trifluoro-methyl)phenyl)sulfonyl)-3,4-dihydro-2H-benzo[b][1,4]oxazin-2-yl)methyl)-1-methylcyclo-butane-1-carboxylic acid] | < 500 | – | ** (The symbol “**” indicates a value in the range of greater than 90 to 150) | – |
| O=C(O)C1(C[C@H]2CN(S(=O)(=O)c3cc(F)cc(C(F)(F)F)c3)c3cc(-c4cc(F)cc(OC(F)F)c4)ccc3O2)COC1 [Compound 51I, (S)-3-((6-(3-(difluoromethoxy)-5-fluorophenyl)-4-((3-fluoro-5-(trifluoromethyl)phenyl)sulfonyl)-3,4-dihydro-2H-benzo[b][1,4]-oxazin-2-yl)methyl)oxetane-3-carboxylic acid] | < 500 | – | * (The symbol “*” indicates a value in the range of 25 to 90) | – |
| O=C(O)C1(C[C@H]2CN(S(=O)(=O)c3cccc(C(F)F)c3)c3cc(-c4cc(F)ccc4F)ccc3O2)COC1 [Compound 51H, (S)-3-((4-((3-(difluoromethyl)-phenyl)sulfonyl)-6-(2,5-difluorophenyl)-3,4-dihydro-2H-benzo[b][1,4]oxazin-2-yl)methyl)oxetane-3-carboxylic acid] | 500 to 5000 | – | ** (The symbol “**” indicates a value in the range of greater than 90 to 150) | – |

Further lines, with some results ahead:

| EC50 (2 μM ursolic acid) [nM] | EC50 [1] [nM] | SMILES | Gal4-RORγ Assay Max Response (2 μM ursolic acid) | Gal4-RORγ Assay Max Response [1] |
| --- | --- | --- | --- | --- |
| 500 to 5000 | – | CC(C)(O[C@@H]1Cc2ccc(-c3cc(F)cc(OC(F)F)c3)cc2N(S(=O)(=O)c2cccc(C(F)(F)F)c2)C1)C(=O)O [Compound 83D, (R)-2-((7-(3-(difluoromethoxy)-5-fluorophenyl)-1-((3-(trifluoromethyl)phenyl)sulfonyl)-1,2,3,4-tetrahydroquinolin-3-yl)oxy)-2-methylpropanoic acid] | ** (The symbol “**” indicates a value in the range of greater than 90 to 150) | – |
| < 500 | – | Cc1cc(F)cc(-c2ccc3c(c2)N(S(=O)(=O)c2cccc(C(F)(F)F)c2)C[C@H](CC2(C(=O)O)CCOCC2)O3)c1 [Compound 78Q, (S)-4-((6-(3-fluoro-5-methyl-phenyl)-4-((3-(trifluoromethyl)-phenyl)sulfonyl)-3,4-dihydro-2H-benzo[b][1,4]oxazin-2-yl)methyl)tetrahydro-2H-pyran-4-carboxylic acid] | ** (The symbol “**” indicates a value in the range of greater than 90 to 150) | – |
| 500 to 5000 | – | O=C(O)[C@]1(C[C@H]2CN(S(=O)(=O)c3cccc(C(F)(F)F)c3)c3cc(-c4cc(F)ccc4F)ccc3O2)C[C@@](O)(CO)C1 [Compound 89E, (1s,3S)-1-(((S)-6-(2,5-difluoro-phenyl)-4-((3-(trifluoromethyl)-phenyl)sulfonyl)-3,4-dihydro-2H-benzo[b][1,4]oxazin-2-yl)methyl)-3-hydroxy-3-(hydroxymethyl)-cyclobutane-1-carboxylic acid] | ** (The symbol “**” indicates a value in the range of greater than 90 to 150) | – |
| 500 to 5000 | – | O=C(O)[C@]1(C[C@H]2CN(S(=O)(=O)c3cccc(C(F)(F)F)c3)c3cc(-c4cc(F)ccc4F)ccc3O2)C[C@](O)(CO)C1 [Compound 89D, (1r,3R)-1-(((S)-6-(2,5-difluoro-phenyl)-4-((3-(trifluoromethyl)-phenyl)sulfonyl)-3,4-dihydro-2H-benzo[b][1,4]oxazin-2-yl)methyl)-3-hydroxy-3-(hydroxymethyl)-cyclobutane-1-carboxylic acid] | ** (The symbol “**” indicates a value in the range of greater than 90 to 150) | – |
| < 500 | – | COc1cc(F)cc(-c2ccc3c(c2)N(S(=O)(=O)c2cccc(C(F)(F)F)c2)C[C@H](CC2(C(=O)O)CCOCC2)O3)c1 [Compound 78R, (S)-4-((6-(3-fluoro-5-methoxy-phenyl)-4-((3-(trifluoromethyl)-phenyl)sulfonyl)-3,4-dihydro-2H-benzo[b][1,4]oxazin-2-yl)methyl)tetrahydro-2H-pyran-4-carboxylic acid] | ** (The symbol “**” indicates a value in the range of greater than 90 to 150) | – |
| 500 to 5000 | – | CC(C)(O[C@@H]1Cc2ccc(-c3cc(F)ccc3F)cc2N(S(=O)(=O)c2cccc(C(F)(F)F)c2)C1)C(=O)O [Compound 83B, (R)-2-((7-(2,5-difluorophenyl)-1-((3-(trifluoromethyl)phenyl)sulfonyl)-1,2,3,4-tetrahydroquinolin-3-yl)oxy)-2-methylpropanoic acid] | ** (The symbol “**” indicates a value in the range of greater than 90 to 150) | – |
| 500 to 5000 | – | C[C@]1(C(=O)O)C[C@@H](C[C@H]2CN(S(=O)(=O)c3cccc(C(F)(F)F)c3)c3cc(-c4cc(F)cc(OC(F)F)c4)ccc3O2)C1 [Compound 70, (1R,3s)-3-(((S)-6-(3-(difluoromethoxy)-5-fluorophenyl)-4-((3-(trifluoromethyl)phenyl)sulfonyl)-3,4-dihydro-2H-benzo[b][1,4]oxazin-2-yl)methyl)-1-methylcyclobutane-1-carboxylic acid] | *** (The symbol “***” indicates a value in the range of greater than 150 to 200) | – |
| < 500 | – | O=C(O)C1(C[C@H]2CN(S(=O)(=O)c3cccc(C(F)(F)F)c3)c3cc(-c4cccc(F)c4Cl)ccc3O2)CCOCC1 [Compound 78M, (S)-4-((6-(2-chloro-3-fluoro-phenyl)-4-((3-(trifluoromethyl)-phenyl)sulfonyl)-3,4-dihydro-2H-benzo[b][1,4]oxazin-2-yl)methyl)tetrahydro-2H-pyran-4-carboxylic acid] | *** (The symbol “***” indicates a value in the range of greater than 150 to 200) | – |
| 500 to 5000 | – | O=C(O)CO[C@@H]1Cc2ccc(-c3cc(F)ccc3F)cc2N(S(=O)(=O)c2cccc(C(F)(F)F)c2)C1 [Compound 82, (R)-2-((7-(2,5-difluorophenyl)-1-((3-(trifluoromethyl)phenyl)sulfonyl)-1,2,3,4-tetrahydroquinolin-3-yl)oxy)acetic acid] | ** (The symbol “**” indicates a value in the range of greater than 90 to 150) | – |

— patent US10611740B2, “Aryl dihydro-2H-benzo[b][1,4]oxazine sulfonamide and related compounds for use as agonists of RORγ and the treatment of disease” (Lycera Corporation, priority 2015, dated 2020)
